From patent US8026359B2, “Fungicidal heterocyclic amines” (E.I. du Pont de Nemours and Company, priority 2007, dated 2011)

Experiments:
Type in all cases: in vivo
Fusarium graminearum = experiment: whole plant or invertebrate; settings: for Test E disease control rating: 200 ppm, 100 = 100% disease control, 0 = no control relative to controls
Septoria nodorum = experiment: Test C: wheat glume blotch, preventive spray on wheat seedlings; settings: 200 ppm, 100 = 100% disease control, 0 = no control relative to controls
Procedure, shortened: (§1)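 Compounds were dissolved in acetone (3% of final volume), then suspended in 50/50 acetone/purified water with 250 ppm Trem 014 surfactant. Plants were sprayed to run-off at 200 ppm (equivalent to 500 g/ha) or 40 ppm.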

Botrytis cinerea = experiment: Test F: tomato Botrytis, preventive spray on tomato seedlings; settings: 200 ppm, 100 = 100% disease control, 0 = no control relative to controls
Procedure, shortened: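 Preventive run-off spray onto tomato seedlings at 200 ppm (equivalent to 500 g/ha) or 40 ppm. Suspensions: compound predissolved in acetone at 3% of final volume, then taken up in acetone/purified water 50/50 containing 250 ppm Trem® 014 surfactant.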

Phytophthora infestans = settings: 200 ppm; 100 = 100% disease control, 0 = no control relative to controls
Septoria tritici = experiment: Test D: wheat leaf blotch, preventive spray on wheat seedlings; settings: 200 ppm; 100 = 100% disease control, 0 = no control relative to controls
Procedure, shortened: as §1

Plasmopara viticola = experiment: Test L: grape downy mildew, spray after inoculation of grape seedlings; settings: 200 ppm; 100 = 100% disease control, 0 = no control relative to controls
Description: General protocol for preparing test suspensions for Tests A-R: The test compounds were first dissolved in acetone in an amount equal to 3% of the final volume and then suspended at the desired concentration (in ppm) in acetone and purified water (50/50 mix) containing 250 ppm of the surfactant Trem® 014 (polyhydric alcohol esters). The resulting test suspensions were then used in tests A-R. In Tests A-M, compounds were sprayed as a 200 ppm test suspension (equivalent to a rate of 500 g/ha) or as a 40 ppm test suspension to the point of runoff on the test plants. In Tests N-R, compounds were sprayed as a 100 g/ha test suspension (equivalent to a rate of 100 ppm) on the test plants at an application volume of 1000 L/ha. Grape seedlings were inoculated with a spore suspension of Plasmopara viticola (the causal agent of grape downy mildew) and incubated in a saturated atmosphere at 20° C. for 24 h. After a short drying period, the test suspension was sprayed to the point of run-off on the grape seedlings and then moved to a growth chamber at 20° C. for 6 days, after which time the test units were placed back into a saturated atmosphere at 20° C. for 24 h. Upon removal, disease ratings were made.

[1] = tested on: Erysiphe graminis f. sp. tritici; experiment: Test A: wheat powdery mildew, preventive spray on wheat seedlings; settings: 200 ppm, 100 = 100% disease control, 0 = no control relative to controls
Procedure, shortened: as §1

Pythium aphanidermatum = experiment: Test M: bluegrass pythium blight, preventive spray on bluegrass seedlings; settings: 200 ppm; 100 = 100% disease control, 0 = no control relative to controls
Description: (§2) General protocol for preparing test suspensions for Tests A-R: The test compounds were first dissolved in acetone in an amount equal to 3% of the final volume and then suspended at the desired concentration (in ppm) in acetone and purified water (50/50 mix) containing 250 ppm of the surfactant Trem® 014 (polyhydric alcohol esters). The resulting test suspensions were then used in tests A-R. In Tests A-M, compounds were sprayed as a 200 ppm test suspension (equivalent to a rate of 500 g/ha) or as a 40 ppm test suspension to the point of runoff on the test plants. In Tests N-R, compounds were sprayed as a 100 g/ha test suspension (equivalent to a rate of 100 ppm) on the test plants at an application volume of 1000 L/ha. The test suspension was sprayed to the point of run-off on bluegrass seedlings.

[2] = tested on: Colletotrichum orbiculare; experiment: Test I: cucumber Colletotrichum anthracnose, preventive spray on cucumber seedlings; settings: 100 = 100% disease control, 0 = no control relative to controls; for Test I disease control rating: 200 ppm
Procedure, shortened: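 Preventive foliar spray to run-off on cucumber seedlings, at 200 ppm (stated as equal to 500 g/ha) or 40 ppm. Test suspensions were made in acetone/water 50/50 containing 250 ppm Trem 014, after first dissolving compound in acetone at 3% of final volume.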

Rhizoctonia oryzae = experiment: Test J: turf brown patch, preventive spray on creeping bent grass seedlings; settings: 200 ppm; 100 = 100% disease control, 0 = no control relative to controls
Description: as §2, with “creeping bent grass” for “bluegrass”

[3] = tested on: Puccinia recondita f. sp. tritici; experiment: Test B: wheat leaf rust, preventive spray on wheat seedlings; settings: 200 ppm, 100 = 100% disease control, 0 = no control relative to controls
Procedure, shortened: as §1

SMILES	Test E disease control rating (Fusarium graminearum)	Test C disease control rating (Septoria nodorum)	Test F disease control rating (Botrytis cinerea)	Test K disease control rating (Phytophthora infestans)	Test D disease control rating (Septoria tritici)	Test L disease control rating (Plasmopara viticola)	Test A disease control rating [1]	Test M disease control rating (Pythium aphanidermatum)	Test I disease control rating [2]	Test J disease control rating (Rhizoctonia oryzae)	Test B disease control rating [3]	pest or weed control at 200 ppm (Fusarium graminearum; Fusarium graminearum, in Triticum aestivum, 192 h, read-out: Test E disease control rating)	pest or weed control at 200 ppm (Septoria nodorum; Parastagonospora nodorum, 216 h, read-out: Test C disease control rating)	pest or weed control at 200 ppm (Botrytis cinerea; Botrytis cinerea, 120 h, read-out: Test F disease control rating)	pest or weed control at 200 ppm ([1]; Blumeria graminis, 192 h, read-out: Test A disease control rating)	pest or weed control at 200 ppm ([2]; Colletotrichum orbiculare, 144 h, read-out: Test I disease control rating)	pest or weed control at 200 ppm ([3]; Puccinia recondita, 192 h, read-out: Test B disease control rating)
COCC(C)Nc1nccc(-c2ccnc(Nc3cccc(C#N)c3)c2)n1 (stereo not shown) [Compound 42]	0%	94%	75%	0%	9%	16%	0%	0%	92%	0%	88%						
COCC(C)Nc1nccc(-c2ccnc(Nc3ccccc3)c2)n1 (stereo not shown) [Compound 43]	100%	99%	92%	0%		0%	29%	0%	90%	9%	99%						
COCC(C)Nc1nccc(-c2ccnc(Nc3cccc([N+](=O)[O-])c3)c2)n1 (stereo not shown) [Compound 44]	99%	98%	0%	0%		0%	0%	0%	40%	0%	89%						
CC(C)(C)Nc1nccc(-c2ccnc(Nc3cccc(F)c3)c2)n1 [Compound 45]	90%	98%	20%	0%		0%	77%	0%	8%	0%	79%						
COCC(C)Nc1nccc(-c2ccnc(Nc3cccc(Cl)c3F)c2)n1 (stereo not shown) [Compound 46]	94%	97%	7%	0%		0%	0%	0%	0%	0%	91%						
COCC(C)Nc1nccc(-c2ccnc(Nc3ccc(F)cc3F)c2)n1 (stereo not shown) [Compound 47]	92%	0%	0%	0%		0%	0%	0%	40%	0%	85%						
CC(CO)Nc1nccc(-c2ccnc(Nc3cccc(F)c3)c2)n1 (stereo not shown) [Compound 48]	0%	87%	15%	0%		0%	0%	0%	26%	0%	99%						
COCC(C)Nc1nccc(-c2ccnc(Nc3c(F)cccc3F)c2)n1 (stereo not shown) [Compound 49]	81%	92%	90%	0%		0%	86%	0%	67%	0%	99%						
COCC(C)Nc1nccc(-c2ccnc(Nc3ccc(F)cc3)c2)n1 (stereo not shown) [Compound 50]	72%	84%	94%	0%		0%	0%	0%	96%	0%	99%						
COCC(C)Nc1nccc(-c2ccnc(Nc3cccc(C)c3)c2)n1 (stereo not shown) [Compound 51]	48%	98%	99%	0%		0%	88%	0%	92%	0%	99%						
Fc1ccc(F)c(Nc2cc(-c3ccnc(NC4CCOCC4)n3)ccn2)c1F [Compound 73]	0%	99%	57%	0%	40%		43%	0%	85%		96%						
COCC(C)Nc1cc(-c2ccnc(Nc3cccc(Cl)c3)n2)ncn1 (stereo not shown) [Compound 105, N^2-(3-chlorophenyl)-N^6′-(2-methoxy-1-methylethyl) [4,4′-bipyrimidine]-2,6′-diamine]				0%		0%		0%		0%		73%	92%	78%	0%	0%	97%
COCC(C)Nc1cc(-c2ccnc(Nc3ccccc3)n2)ncn1 (stereo not shown) [Compound 108]	98%	0%	38%	0%		0%	0%	0%	0%	0%	80%						
